In the NIST ThermoML archive (doi:10.1016/j.fluid.2017.03.021):

Columns and labels:
[1] = molar heat capacity at constant pressure; details: 101.33 kPa, Liquid, DSC
[2] = 101.33 kPa, Liquid; for speed of sound: Sing-around technique in a fixed-path interferometer; for mass density: Vibrating tube method

CCCCC[n+]1ccn(CCCC)c1.O=S(=O)([N-]S(=O)(=O)C(F)(F)F)C(F)(F)F
Details	mass density, [2] [kg/m3]	molar heat capacity at constant pressure, [1] [J/K/mol]	speed of sound, [2] [m/s]
287.15 K	1327.3	–	1239.6
289.15 K	1325.5	–	1234.8
291.15 K	1323.7	–	1230
293.15 K	1321.9	683.58	1225.3
294.15 K	–	684.63	–
295.15 K	1320.1	685.3	1220.6
296.15 K	–	685.96	–
297.15 K	1318.3	686.63	1216
298.15 K	–	687.34	–
299.15 K	1316.5	687.96	1211.3
300.15 K	–	688.62	–
301.15 K	1314.7	689.29	1206.7
302.15 K	–	690	–
303.15 K	1312.9	690.67	1202.1
304.15 K	–	691.38	–
305.15 K	1311.1	692.05	1197.6
306.15 K	–	692.76	–
307.15 K	1309.4	693.52	1193
308.15 K	–	694.28	–
309.15 K	1307.6	694.95	1188.5
310.15 K	–	695.57	–
311.15 K	1305.8	696.23	1184
312.15 K	–	697.09	–
313.15 K	1304	697.9	1179.6
314.15 K	–	698.7	–
315.15 K	1302.3	699.42	1175.1
316.15 K	–	700.08	–
317.15 K	1300.5	700.84	1170.7
318.15 K	–	701.65	–
319.15 K	1298.8	702.37	1166.3
320.15 K	–	703.22	–
321.15 K	1297	703.98	1161.8
322.15 K	–	704.74	–
323.15 K	1295.2	705.5	1157.5
324.15 K	–	706.26	–
325.15 K	1293.5	707.07	1153.1
326.15 K	–	707.83	–
327.15 K	1291.7	708.69	1148.7
328.15 K	–	709.54	–
329.15 K	1290	710.35	1144.4
330.15 K	–	711.07	–
331.15 K	1288.3	711.87	1140.1
332.15 K	–	712.64	–
333.15 K	1286.5	713.4	1135.8
334.15 K	–	714.16	–
335.15 K	1284.8	714.87	1131.5
336.15 K	–	715.68	–
337.15 K	1283	716.44	1127.3
338.15 K	–	717.2	–
339.15 K	1281.3	718.01	1123
340.15 K	–	718.67	–
341.15 K	1279.6	719.43	1118.8
342.15 K	–	719.96	–
343.15 K	1277.8	720.62	1114.7
344.15 K	–	721.24	–
345.15 K	–	721.86	–
346.15 K	–	722.48	–
347.15 K	–	723.29	–
348.15 K	–	724.47	–

CCCCn1cc[n+](CCC(C)C)c1.O=S(=O)([N-]S(=O)(=O)C(F)(F)F)C(F)(F)F
Details	mass density, [2] [kg/m3]	molar heat capacity at constant pressure, [1] [J/K/mol]	speed of sound, [2] [m/s]
287.15 K	1328.1	–	1243.8
289.15 K	1326.3	–	1238.9
291.15 K	1324.4	–	1234.1
293.15 K	1322.6	681.82	1229.3
294.15 K	–	682.92	–
295.15 K	1320.8	683.63	1224.5
296.15 K	–	684.34	–
297.15 K	1319.1	685.11	1219.8
298.15 K	–	685.77	–
299.15 K	1317.3	686.48	1215.1
300.15 K	–	687.15	–
301.15 K	1315.5	687.82	1210.4
302.15 K	–	688.48	–
303.15 K	1313.7	689.15	1205.8
304.15 K	–	689.91	–
305.15 K	1311.9	690.67	1201.2
306.15 K	–	691.33	–
307.15 K	1310.2	692.19	1196.6
308.15 K	–	692.95	–
309.15 K	1308.4	693.62	1192
310.15 K	–	694.42	–
311.15 K	1306.6	695.14	1187.5
312.15 K	–	695.9	–
313.15 K	1304.9	696.66	1183
314.15 K	–	697.47	–
315.15 K	1303.1	698.23	1178.4
316.15 K	–	698.94	–
317.15 K	1301.3	699.65	1173.9
318.15 K	–	700.56	–
319.15 K	1299.6	701.27	1169.5
320.15 K	–	702.08	–
321.15 K	1297.8	702.84	1165
322.15 K	–	703.7	–
323.15 K	1296.1	704.55	1160.6
324.15 K	–	705.36	–
325.15 K	1294.3	706.26	1156.2
326.15 K	–	707.07	–
327.15 K	1292.6	707.93	1151.8
328.15 K	–	708.78	–
329.15 K	1290.8	709.59	1147.4
330.15 K	–	710.4	–
331.15 K	1289.1	711.16	1143
332.15 K	–	711.97	–
333.15 K	1287.4	712.68	1138.7
334.15 K	–	713.49	–
335.15 K	1285.6	714.25	1134.3
336.15 K	–	714.92	–
337.15 K	1283.9	715.82	1130
338.15 K	–	716.58	–
339.15 K	1282.2	717.34	1125.7
340.15 K	–	718.15	–
341.15 K	1280.4	718.86	1121.5
342.15 K	–	719.53	–
343.15 K	1278.7	720.2	1117.3
344.15 K	–	720.81	–
345.15 K	–	721.43	–
346.15 K	–	722.24	–
347.15 K	–	723.05	–
348.15 K	–	724.28	–
